These results are taken from patent US20220275534A1, “Peptide Library Production Method” (The University of Tokyo, priority 2018, published 2022).

Holding throughout (design): key: 5: strong intensity; 4: medium intensity; 3: weak intensity; 2: very weak intensity; 1: no peak; N/A: not observed
In one test the test system is KgpF. Briefly: Prenylation of artificial cyclic peptides containing VW or WG sequence with 60 μM KgpF (Examples 12 and 13; Tables 8, 9, 10). The conditions noted are these: KgpF 60 μM, DMAPP 2 mM, 37° C., 18 hours. Format: biochemical, Microcystis aeruginosa. The protocol: The artificial cyclic peptides shown in Table 8 and Table 9 were obtained by translation and synthesis in the artificial translation system (Conditions 15) developed by the present inventors. The peptides thus obtained were then reacted with 60 μM KgpF in the system shown in (Conditions 16) at 37° C. for 18 hours.
Sequence of KgpF (as listed by the source): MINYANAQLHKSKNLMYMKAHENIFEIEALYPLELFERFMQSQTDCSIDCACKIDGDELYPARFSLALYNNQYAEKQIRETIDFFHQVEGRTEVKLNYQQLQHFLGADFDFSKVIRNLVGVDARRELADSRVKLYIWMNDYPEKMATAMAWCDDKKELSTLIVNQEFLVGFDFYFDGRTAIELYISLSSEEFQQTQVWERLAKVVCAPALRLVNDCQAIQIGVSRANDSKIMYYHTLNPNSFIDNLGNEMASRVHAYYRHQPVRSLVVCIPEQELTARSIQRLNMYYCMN
(Conditions 15) • FIT system: v8s/v11.1 • 19aa-Met: 0.5 mM • ClAc-D-Tyr-tRNA^fMetCUA: 90 μM • Reaction: 37° C., 60 min. • Scale: 2.5 μL scale
(Conditions 16) • Translated mixture amount: 2.5 μL (mixture obtained under (Conditions 15)) • KgpF: 60 μM • DMAPP: 2 mM • Reaction: 37° C., 18 hours
The artificial cyclic peptides shown in Table 10 were obtained by translation and synthesis in the artificial translation system (Conditions 17) developed by the present inventors. The peptides thus obtained were then reacted with 60 μM KgpF in the system shown in (Conditions 18) at 37° C. for 18 hours.
(Conditions 17) • FIT system: v8s/v11.1 • 19aa-Met: 0.5 mM • ClAc-D-Tyr-tRNA^fMetCUA: 90 μM • Reaction: 37° C., 60 min. • Scale: 2.5 μL scale
(Conditions 18) • Translated mixture amount: 2.5 μL (mixture obtained under (Conditions 17)) • KgpF: 60 μM • DMAPP: 2 mM • Reaction: 37° C., 18 hours

The subject of another test is KgpF v 3.1. Briefly: Prenylation of artificial cyclic peptides with 10 μM KgpF v 3.1 (Example 11; Table 7). The class given is biochemical, Microcystis aeruginosa. The conditions noted are these: KgpF v 3.1 10 μM. The protocol:
Reaction of the artificial cyclic peptide shown in Table 7 was made under conditions similar to (Conditions 11) and (Conditions 12) except that v8s/v11.1 was used as FIT system, KgpF v 3.1 was used as a prenylation modification enzyme, and the concentration of the KgpF v 3.1 was set at 10 μM. Here, KgpF v 3.1 is an enzyme having a higher purification degree and more improved specific activity than KgpF used under (Conditions 12).

The subject of another test is OltF v 2.1. Briefly: Modification test of thioether-closed artificial cyclic peptides with 9.13 μM OltF v 2.1 (Example 16; Tables 11 and 12). Format: biochemical, Planktothrix. The conditions noted are these: OltF v 2.1 9.13 μM, DMAPP 2 mM, 37° C., 18 hours. The protocol: The artificial cyclic peptides shown in Table 11 and Table 12 were obtained by translation and synthesis in the artificial translation system (Conditions 23) developed by the present inventors. The peptides thus obtained were then reacted with 9.13 μM OltF in the system shown in (Conditions 24) at 37° C. for 18 hours. It is to be noted that OltF v 2.1 is an enzyme prepared from OltF used in (Conditions 22) while changing a purification manner.
(Conditions 23) • FIT system: v8s/v11.1 • 19aa-Met: 0.5 mM • ClAc-D or L-Tyr-tRNA^fMetCUA: 90 μM • Reaction: 37° C., 60 min. • Scale: 2.5 μL scale
(Conditions 24) • Translated mixture amount: 2.5 μL (mixture obtained under (Conditions 23)) • OltF v 2.1: 9.13 μM • DMAPP: 2 mM • Reaction: 37° C., 18 hours

[1] abbreviates: Table 9, VW sequence, various ring sizes.
Where [2] appears, read: Table 8, VW sequence, various ring sizes.
Setting [3] is: Table 10, W at various positions.

Positions of bridges follow the written chain, without caps; N, C: chain ends. Non-standard residues stand in square brackets, D forms with d. No end group written: not given here.

Sequence of OltF v 2.1 (as listed by the source): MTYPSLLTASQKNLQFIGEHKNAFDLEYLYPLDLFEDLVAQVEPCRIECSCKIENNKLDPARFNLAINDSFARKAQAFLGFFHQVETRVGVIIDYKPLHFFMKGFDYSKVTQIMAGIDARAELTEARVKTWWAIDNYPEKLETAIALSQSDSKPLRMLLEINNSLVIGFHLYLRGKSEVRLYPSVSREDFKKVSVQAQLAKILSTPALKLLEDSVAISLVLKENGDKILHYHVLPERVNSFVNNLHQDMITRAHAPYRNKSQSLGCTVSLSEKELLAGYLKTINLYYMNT

Regarding “YG395 ({CH2CO}-[dY]HDYRVWGYHTPC; thioether N-13 (inferred))”, in the test on KgpF (setting [1]), the “Peak intensity, The number of prenyl groups added 0” value amounted to 1 and the “Peak intensity, The number of prenyl groups added 1” value turned out to be 5.
On to “YG291-PaktiL2 ({CH2CO}-[dY]WILITWPLVRRKC; thioether N-14 (inferred))”, for which, in the test with KgpF v 3.1, the “Peak intensity, The number of prenyl groups added 0” value was found to be 4 and the “Peak intensity, The number of prenyl groups added 1” value is 4.
Consider “YG386 ({CH2CO}-[dY]VWCYPRG; thioether N-4)”, for which, in the test on KgpF (setting [2]), the “Peak intensity, The number of prenyl groups added 0” value is given as 1 and the “Peak intensity, The number of prenyl groups added 1” value was 5.
As to “YG411 ({CH2CO}-[dY]HDYRYHTYPVWGC; thioether N-14 (inferred))”, in the test on KgpF (setting [3]), the “Peak intensity, The number of prenyl groups added 0” value turned out to be 1 and the “Peak intensity, The number of prenyl groups added 1” value turned out to be 5.
As for “DNT061 (Ac-[dY]NNRERGSDFFWFFPC; thioether (positions not given here); not fully specified (bridges))”, in the test on OltF v 2.1 (Table 12), the “Peak intensity, The number of prenyl groups added 0” value came to 2 and the “Peak intensity, The number of prenyl groups added 1” value is listed as 5.
Consider “DNT070 ({CH2CO}-[dY]ISWNEFNSYFWLPITC; thioether N-17 (inferred); not fully specified)”, for which, in the test on OltF v 2.1 (Table 12), the “Peak intensity, The number of prenyl groups added 0” value was 1; the “Peak intensity, The number of prenyl groups added 1” value is 5; the “Peak intensity, The number of prenyl groups added 2” value worked out at 1.
“DNT057 (Ac-[dY]RQFNRRTHYFWLPDC; thioether (positions not given here); not fully specified (bridges))”: in the test with OltF v 2.1 (Table 12), the “Peak intensity, The number of prenyl groups added 0” value is 1 and the “Peak intensity, The number of prenyl groups added 1” value is reported as 5.
“YG402 ({CH2CO}-[dY]WGHDYRVYHTYPC; thioether N-14 (inferred))”: in the test on KgpF (setting [3]), the “Peak intensity, The number of prenyl groups added 0” value worked out at 5 and the “Peak intensity, The number of prenyl groups added 1” value is recorded as 1.
Regarding “YG296-aMD5 ({CH2CO}-[dY]WYYAWDQTYKAFPC; thioether N-15 (inferred))”, in the test with KgpF v 3.1, the “Peak intensity, The number of prenyl groups added 0” value is on record as 5; the “Peak intensity, The number of prenyl groups added 1” value amounted to 3; the “Peak intensity, The number of prenyl groups added 2” value came out at 1.
On to “YG297 ({CH2CO}-[dY]RQFNRRTHEVWNLDC; thioether N-16 (inferred))”, for which, in the test on OltF v 2.1 (Table 11), the “Peak intensity, The number of prenyl groups added 0” value was 5 and the “Peak intensity, The number of prenyl groups added 1” value is 4.
As to “YG293-MaL4 ({CH2CO}-[dY]TFRDVWIFYGSLLSRC; thioether N-17 (inferred))”, in the test on KgpF v 3.1, the “Peak intensity, The number of prenyl groups added 0” value was found to be 1 and the “Peak intensity, The number of prenyl groups added 1” value worked out at 5.
Regarding “DNT063 (Ac-[dY]NNRERGSDYYWYYPC; thioether (positions not given here); not fully specified (bridges))”, in the test with OltF v 2.1 (Table 12), the “Peak intensity, The number of prenyl groups added 0” value worked out at 2 and the “Peak intensity, The number of prenyl groups added 1” value came out at 5.
Turning to “YG390 ({CH2CO}-[dY]RVWGYPC; thioether N-8)”, in the test with KgpF (setting [2]), the “Peak intensity, The number of prenyl groups added 0” value worked out at 1 and the “Peak intensity, The number of prenyl groups added 1” value came to 5.
Take “DNT062 (Ac-[dY]NNRERGSDGGWGGPC; thioether (positions not given here); not fully specified (bridges))”: in the test with OltF v 2.1 (Table 12), the “Peak intensity, The number of prenyl groups added 0” value worked out at 3 and the “Peak intensity, The number of prenyl groups added 1” value stood at 5.
For the substance “YG295 ({CH2CO}-[dY]ISWNEFNSPNWRFITC; thioether N-17 (inferred); not fully specified)”, in the test with OltF v 2.1 (Table 11), the “Peak intensity, The number of prenyl groups added 0” value is 4; the “Peak intensity, The number of prenyl groups added 1” value is on record as 3; the “Peak intensity, The number of prenyl groups added 2” value came out at 1.
Consider “YG289 ({CH2CO}-[dY]HDYRIWRYHTYPC; thioether N-14 (inferred))”, for which, in the test with OltF v 2.1 (Table 11), the “Peak intensity, The number of prenyl groups added 0” value turned out to be 1 and the “Peak intensity, The number of prenyl groups added 1” value stood at 5.
Turning to “YG295-aML5 ({CH2CO}-[dY]ISWNEFNSPNWRFITC; thioether N-17 (inferred))”, in the test with KgpF v 3.1, the “Peak intensity, The number of prenyl groups added 0” value was 1; the “Peak intensity, The number of prenyl groups added 1” value worked out at 5; the “Peak intensity, The number of prenyl groups added 2” value came to 1.
Take “YG293 ({CH2CO}-[dY]TFRDVWIFYGSLLSRC; thioether N-17 (inferred))”: in the test with OltF v 2.1 (Table 11), the “Peak intensity, The number of prenyl groups added 0” value worked out at 3 and the “Peak intensity, The number of prenyl groups added 1” value was 4.
